# Measured values published in US6610502B1, “Compound 2-amino-3-[2-(α-mannopyranosyl)indol-3-yl]propionic acid, process for preparing the same, and method for inspecting function of living body with the novel compound” (Kyowa Medex Co., Ltd., priority 1997, dated 2003).
# Assay: Quantitation of the compound in amniotic fluid by high performance liquid chromatography (Example 5)
# Assay type: in vivo, human
# Procedure: Standard solution of 2-amino-3-[2-(α-mannopyranosyl)indole-3-yl]propionic acid obtained in Example 1 above was prepared. Next, 350 μl of the standard solution was added to 500 μl of 0.1N hydrochloric acid containing 1% vitamin C, mixed with 50 μl of 40 μM N-methyl serotonin as an internal standard then 100 μl of 60% perchloric acid, and centrifuged at 3000 rpm at 4° C. The supernatant was filtered through a 0.22 μm filter to obtain a filtrate.
# The filtrate was subjected to high performance liquid chromatography under the following conditions:
# Amniotic fluids from pregnant healthy persons and pregnant patients with uremic syndrome staying in hospital were quantitated for the compound of the present invention. Amniotic fluids were collected from 21 healthy persons (21-41 weeks old) and 9 pregnant patients with uremic syndrome (24-49 weeks old), and assayed for the compound of the present invention. The quantitation was performed in the same manner as that of Example 2 except that amniotic fluids were used instead of the standard solution. The results are shown in FIG. 4 in which Δ and ● show the healthy persons and the pregnant patients with uremic syndrome, respectively. As shown in this figure, 353.0 ng/ml (SD 120.1) was obtained for the healthy persons while […] for the pregnant patients with uremic syndrome.
compound,measurement,setting,value
"NC(Cc1c([C@H]2O[C@H](CO)[C@@H](O)[C@H](O)[C@@H]2O)[nH]c2ccccc12)C(=O)O (stereo partly drawn) [the present compound, 2-amino-3-[2-(α-mannopyranosyl)indole-3-yl]propionic acid]",range of levels in amniotic fluids from 99% of subjects,healthy persons (n=21),113 to 593 ng/mL
same,level in amniotic fluids,"pregnant healthy persons (n=21), SD 120.1",353.0 ng/mL
same,range of levels in amniotic fluids from 99% of subjects,pregnant patients with uremic syndrome (n=9),675 to 2147 ng/mL
same,level in amniotic fluids,"pregnant patients with uremic syndrome (n=9), SD 367.9",410.7 ng/mL
